Earlier results on two molecules are cited in patent US20040116329A1, “Inhibition of proteasomes to prevent restenosis” (priority 2004, published 2004).

Series [1] deals with apoptosis. As to conditions: through stabilization of proteins critical for cell cycle progression and control of apoptosis.
The conditions of series [2]: given orally.
The test system of series [3] is SMC. As to conditions: in vitro.
Series [4] relates to SMC. As to conditions: in vitro. The source holds these as a separate data set.
In a further series the test system is neointimal accumulation. As to conditions: in vivo, rat carotid artery injury model.
Series [5] concerns apoptosis. As to conditions: biologically relevant concentrations.

SMILES strings stand for the structures. Where two headings read alike, the source gives them in different places.

In the case of `CC(C)C[C@H](NC(=O)[C@H](Cc1ccccc1)NC(=O)c1cnccn1)B(O)O` [LDP-341], the induction of apoptosis entry with apoptosis [1] is given as “induce apoptosis”. The “activity in tumor treatment in combination” value with various tumors (in combination with standard chemotherapeutic agents or radiation) was “appears very active”. In addition, in the series with various tumors (in vivo), the “volume of various tumors” value is listed as “effective in reducing the volume of various tumors”. Also, the major side effects result in series [2] is “gastrointestinal in nature”.

On to `CC(=O)O[C@H]1C(=O)[C@@]2(C)[C@H]([C@H](OC(=O)c3ccccc3)[C@]3(O)C[C@H](OC(=O)[C@H](O)[C@@H](NC(=O)c4ccccc4)c4ccccc4)C(C)=C1C3(C)C)[C@]1(OC(C)=O)CO[C@@H]1C[C@@H]2O` [paclitaxel], for which the “platelet-derived growth factor-stimulated SMC migration” value in the series with SMC [3] is reported as “inhibited”. Moreover, in the series on SMC [4], the SMC proliferation result was “inhibited”. Further, in the series with neointimal accumulation, the neointimal accumulation result was “inhibited neointimal accumulation”. For the same molecule, the induction of apoptosis entry in the series with apoptosis [5] is “does not appear to induce apoptosis”.
